Two molecules from patent US20120264799A1, “INDANE-AMINE DERIVATIVES, THEIR PREPARATION AND USE AS MEDICAMENTS” (LABORATORIOS DEL DR. ESTEVE ,S.A., priority 2009, published 2012) can be followed below.

For the assay, the target named is T1, Cloned Human Serotonin Receptor, Subtype 7 (h5HT7) (Homo sapiens, UniProt P34969).
T1 construct: purchased PerkinElmer 6120512; host or cells: CHO cells
In words: Radioligand binding assay, [125I]LSD, Flashplate. The settings on record: h5HT7 expressed in CHO cells; radioligand [125I]LSD 0.82 nM; 240 min at room temperature; read-out: 5-HT7 Ki. The protocol:
Radioligand binding assays were performed using the Cloned Human Serotonin Receptor, Subtype 7 (h5HT7), expressed in CHO cells, coated on Flashplate (Basic FlashPlate Cat.: SMP200) from PerkinElmer (Cat.: 6120512). The protocol assay was essentially the recommended protocol in the Technical Data Sheet by PerkinEmer Life and Analytical Sciences. The Mass membrane protein/well was typically […] and the Receptor/well was about 9-10 fmoles. The Flashplate were let equilibrate at room temperature for one hour before the addition of the components of the assay mixture. The binding buffer was: 50 mM Tris-HCl, pH 7.4, containing 10 mM MgCl2, 0.5 mM EDTA and 0.5% BSA. The radioligand was [^125l]LSD at a final concentration of 0.82 nM. Nonspecific binding was determined with 50 µM of Clozapine. The assay volume was […]. […] The radioactivity were quantified by liquid scintillation spectrophotometry (Wallac 1450 Microbeta Trilux) with a count delay of 4 minutes prior to counting and a counting time of 30 seconds per well. Competition binding data were analyzed by using the LIGAND program (Munson and Rodbard, LIGAND: A versatile, computerized approach for characterization of ligandbinding systems. Anal. Biochem. 107: 220-239, 1980) and assays were performed in triplicate determinations for each point.

T1 sequence (P34969 whole entry): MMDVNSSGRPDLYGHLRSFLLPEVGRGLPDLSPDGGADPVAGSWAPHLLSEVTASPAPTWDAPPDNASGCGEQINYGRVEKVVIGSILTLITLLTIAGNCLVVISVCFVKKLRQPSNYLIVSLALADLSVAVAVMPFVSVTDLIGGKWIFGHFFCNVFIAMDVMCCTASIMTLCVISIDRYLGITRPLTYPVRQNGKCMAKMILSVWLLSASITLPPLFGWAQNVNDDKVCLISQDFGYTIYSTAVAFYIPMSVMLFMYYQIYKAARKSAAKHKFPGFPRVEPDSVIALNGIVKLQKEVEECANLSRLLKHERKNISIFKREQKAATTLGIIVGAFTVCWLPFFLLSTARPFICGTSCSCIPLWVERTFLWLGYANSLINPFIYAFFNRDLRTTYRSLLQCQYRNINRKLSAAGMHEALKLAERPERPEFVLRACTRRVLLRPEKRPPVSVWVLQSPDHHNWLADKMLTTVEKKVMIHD

Turning to `Cc1nn(C)c(-c2ccc3c(c2)C(N(C)C)CC3)c1C` (centres unmarked) [Example 3, N,N-dimethyl-6-(1,3,4-trimethyl-1H-pyrazol-5-yl)-2,3-dihydro-1H-inden-1-amine], the Ki was determined as 0.425 µM.
As to `Cc1nn(C(C)C)c(-c2ccc3c(c2)C(N(C)C)CC3)c1C` (centres unmarked) [Example 9, 6-(1-lsopropyl-3,4-dimethyl-1H-pyrazol-5-yl)-N,N-dimethyl-2,3-dihydro-1H-inden-1-amine], the inhibition constant (Ki) is 0.36 µM.

The Ki is the equilibrium dissociation constant of an inhibitor or competing ligand from its target.
